From patent US9296787B2, “Antitumor peptide and use thereof” (priority 2011, dated 2016) come the findings set out here.

What all share (assay type): cell-based
The test system of assay [1] is human alveolar basal epithelial adenocarcinoma cells, A549. The following applies: for antitumor activity (tumor cell proliferation-inhibiting activity), in words: A549, 50 μM, 24 hours, summary of Table 5; for A450(-A620) After 24 hers: A549, peptide 50 μM, WST-8 absorbance after 24 hours. How it is done:
(§1) As the tumor cells tested, a commercial mouse neuroblastoma cell line (N1E-115) was used. The cell line was cultured beforehand in a DMEM medium (i.e. Dulbecco MEM medium (DMEM medium, a Gibco product) containing 10% fetal bovine serum (FBS, a Gibco product), 2 mM of L-glutamine, 50 unit/mL of penicillin, and 50 μg/mL of streptomycin), and the number of cells per well in a 96-well plate was adjusted to approximately 5×10^3. The volume of the medium for this was 100 μL per well.
(§2) Subsequently, the stock solution of each sample peptide shown in Table 3 was added to each well to a peptide concentration in the well of 50 μM or 100 μM.
(§3) After the sample peptides were added as described above, the 96-well plate was placed in a CO2 incubator and cultured without agitation at 37° C. under 5% CO2. At the time of the peptide addition (at the start of treatment) and at 6 hours or 24 hours from the peptide addition and the start of incubation, the viability status of the cultured cells tested was analyzed with a commercial colorimetric assay kit. In particular, to each cell-culturing well, “water-soluble tetrazolium salt (WST-8)” was added as a colorimetric reagent; after two hours of incubation following the addition, the cell culture medium supplied with the colorimetric reagent was collected; and the level of inhibition of cell proliferation was evaluated by colorimetry, measuring the absorbance at a wavelength of 450 nm (values corrected with the absorbance at a wavelength of 620 nm, A450-A620) based on reduction of tetrazolium salt. Based on the absorbance at the time of the sample peptide addition (at the start of treatment), the percent decrease in the absorbance after 6 hours or 24 hours was determined as the cell proliferation inhibition rate (%).
Cells forming a […] (human alveolar basal epithelial adenocarcinoma cells, A549) were substituted for the tumor cells tested and the same test as Example 2 described above was carried out. In the present example, the peptides of Samples 1 to 13, 15 to 22, 24, 29, 35 and 40 were used.
(Tetrazolium dyes change colour on reduction, which living cells bring about.)

Assay [2] relates to HeLa cells (HeLa S3). The following applies: WST-8 absorbance after 24 hours. On the procedure:
as §1, §2, §3
HeLa cells (HeLa S3) were substituted for the tumor cells tested and the same test as Example 2 described above was carried out. In the present example, the peptides of Samples 1 to 7, 9, 10, 13, 16, 21 and 35 were used.

The subject of assay [3] is mouse neuroblastoma cell line (N1E-115). To be noted: for antitumor activity (tumor cell proliferation-inhibiting activity), in words: N1E-115, 50 or 100 μM, summary of Table 3; for A450(-A620) After 24 hers: WST-8 absorbance after 24 hours. How it is done:
Some of the sample peptides obtained in Example 1 were tested for antitumor activity against target cultured tumor cells. Details of the assay are as described below.
as §1, §2, §3

Like-named read-outs stand apart in the source and are kept apart here. Positions of bridges follow the written chain, without caps; N, C: chain ends. Residues, ends and D or L forms follow the SMILES beside them. No end group written: not given here.

Consider `CSCC[C@@H]1NC(=O)[C@H](CCCCN)NC(=O)[C@H]([C@@H](C)O)NC(=O)[C@H](CCC(N)=O)NC(=O)CNC(=O)[C@H](CC(C)C)NC(=O)[C@@H](N)CSSC[C@@H](C(=O)O)NC(=O)[C@H](CCCNC(=N)N)NC1=O` [Sample 3, CLGQTKMRC] (H-CLGQTKMRC-OH; disulfide 1-9; N-terminus and C-terminus assumed), for which the “antitumor activity (tumor cell proliferation-inhibiting activity), in words” value in assay [1] is on record as “high antitumor activity”. Besides, the “A450(-A620) After 24 hers” value in assay [1] came out at 1.7022; in assay [2] (HeLa S3, peptide 50 μM), 0.1194; in assay [2] (HeLa S3, peptide 100 μM) it was 0.0997.
For `CC[C@H](C)[C@@H]1NC(=O)[C@H](Cc2c[nH]cn2)NC(=O)[C@@H](N)CSSC[C@@H](C(=O)O)NC(=O)[C@H](C)NC(=O)[C@H](CCC(N)=O)NC(=O)[C@H](C)NC(=O)[C@H](Cc2c[nH]cn2)NC(=O)[C@H](CC(C)C)NC1=O` [Sample 8, CHILHAQAC] (H-CHILHAQAC-OH; disulfide 1-9; N-terminus and C-terminus assumed), the “A450(-A620) After 24 hers” value in assay [1] came out at 1.7885.
As for `CSCC[C@@H]1NC(=O)[C@@H]2CCCN2C(=O)[C@H](CCCNC(=N)N)NC(=O)[C@H](CCCCN)NC(=O)[C@H](CCC(=O)O)NC(=O)[C@H](Cc2ccc(O)cc2)NC(=O)[C@H](CO)NC(=O)[C@@H](N)CSSC[C@@H](C(=O)O)NC1=O` [Sample 11, CSYEKRPMC] (H-CSYEKRPMC-OH; disulfide 1-9; N-terminus and C-terminus assumed), in assay [1], the “antitumor activity (tumor cell proliferation-inhibiting activity), in words” value is listed as “high antitumor activity” and the “A450(-A620) After 24 hers” value turned out to be 1.6741.
Consider `CC(C)C[C@@H]1NC(=O)[C@@H](N)CSSC[C@@H](C(=O)O)NC(=O)[C@H](CO)NC(=O)[C@H]([C@@H](C)O)NC(=O)[C@H](Cc2ccc(O)cc2)NC(=O)[C@H](CO)NC(=O)[C@H](CCCCN)NC(=O)[C@H]([C@@H](C)O)NC1=O` [Sample 12, CLTKSYTSC] (H-CLTKSYTSC-OH; disulfide 1-9; N-terminus and C-terminus assumed), for which the “A450(-A620) After 24 hers” value in assay [1] worked out at 1.9165.
Regarding `CC(C)C[C@H](NC(=O)[C@@H](NC(=O)[C@H](CCCNC(=N)N)NC(=O)[C@H](CCCCN)NC(=O)[C@H](CCCCN)NC(=O)[C@@H]1CSSC[C@H](N)C(=O)N[C@@H](CO)C(=O)N[C@@H](CO)C(=O)N[C@@H](C)C(=O)N[C@@H]([C@@H](C)O)C(=O)NCC(=O)N[C@@H](CCCCN)C(=O)N[C@@H](CO)C(=O)N1)[C@@H](C)O)C(=O)N[C@@H](CCCNC(=N)N)C(=O)N[C@@H](CCCCN)C(=O)N[C@@H](CC(N)=O)C(=O)N[C@@H](CC(=O)O)C(=O)N[C@@H](CCCNC(=N)N)C(=O)N[C@@H](CCCCN)C(=O)N[C@@H](CCCCN)C(=O)N[C@@H](CCCNC(=N)N)C(=O)O` [Sample 23] (H-CSSATGKSCKKRTLRKNDRKKR-OH; disulfide 1-9; N-terminus and C-terminus assumed), in assay [3], the “antitumor activity (tumor cell proliferation-inhibiting activity), in words” value is “high antitumor activity”. The “A450(-A620) After 24 hers” value is on record as 0.4127 in assay [3] (N1E-115, peptide 50 μM) and 0.3841 in assay [3] (N1E-115, peptide 100 μM).
Take `CC(C)C[C@H](NC(=O)[C@@H](NC(=O)[C@H](CCCNC(=N)N)NC(=O)[C@H](CCCCN)NC(=O)[C@H](CCCCN)NC(=O)[C@@H]1CSSC[C@H](N)C(=O)N[C@@H](CC(C)C)C(=O)N[C@@H](C)C(=O)N2CCC[C@H]2C(=O)N[C@@H](CO)C(=O)N2CCC[C@H]2C(=O)N[C@@H](CO)C(=O)N[C@@H](CCCCN)C(=O)N1)[C@@H](C)O)C(=O)N[C@@H](CCCNC(=N)N)C(=O)N[C@@H](CCCCN)C(=O)N[C@@H](CC(N)=O)C(=O)N[C@@H](CC(=O)O)C(=O)N[C@@H](CCCNC(=N)N)C(=O)N[C@@H](CCCCN)C(=O)N[C@@H](CCCCN)C(=O)N[C@@H](CCCNC(=N)N)C(=O)O` [Sample 24] (H-CLAPSPSKCKKRTLRKNDRKKR-OH; disulfide 1-9; N-terminus and C-terminus assumed): the “antitumor activity (tumor cell proliferation-inhibiting activity), in words” value in assay [1] and in assay [3] was “high antitumor activity” throughout. Further, the “A450(-A620) After 24 hers” value was 1.5820 in assay [1]; 0.3492 in assay [3] (N1E-115, peptide 50 μM); 0.3198 in assay [3] (N1E-115, peptide 100 μM).
As for `CC(C)C[C@H](NC(=O)[C@@H](NC(=O)[C@H](CCCNC(=N)N)NC(=O)[C@H](CCCCN)NC(=O)[C@H](CCCCN)NC(=O)[C@@H]1CSSC[C@H](N)C(=O)NCC(=O)N[C@@H](Cc2c[nH]cn2)C(=O)N[C@@H](CCCNC(=N)N)C(=O)N2CCC[C@H]2C(=O)N[C@@H](Cc2ccc(O)cc2)C(=O)N[C@@H](CCC(N)=O)C(=O)N[C@@H](Cc2ccc(O)cc2)C(=O)N1)[C@@H](C)O)C(=O)N[C@@H](CCCNC(=N)N)C(=O)N[C@@H](CCCCN)C(=O)N[C@@H](CC(N)=O)C(=O)N[C@@H](CC(=O)O)C(=O)N[C@@H](CCCNC(=N)N)C(=O)N[C@@H](CCCCN)C(=O)N[C@@H](CCCCN)C(=O)N[C@@H](CCCNC(=N)N)C(=O)O` [Sample 26] (H-CGHRPYQYCKKRTLRKNDRKKR-OH; disulfide 1-9; N-terminus and C-terminus assumed), the “antitumor activity (tumor cell proliferation-inhibiting activity), in words” value in assay [3] was “high antitumor activity”. The “A450(-A620) After 24 hers” value in assay [3] (N1E-115, peptide 50 μM) worked out at 0.4550; in assay [3] (N1E-115, peptide 100 μM), 0.3643.
In the case of `CC[C@H](C)[C@@H]1NC(=O)[C@H](CCC(=O)O)NC(=O)[C@@H](N)CSSC[C@@H](C(=O)N[C@@H](CCCCN)C(=O)N[C@@H](CCCCN)C(=O)N[C@@H](CCCNC(=N)N)C(=O)N[C@H](C(=O)N[C@@H](CC(C)C)C(=O)N[C@@H](CCCNC(=N)N)C(=O)N[C@@H](CCCCN)C(=O)N[C@@H](CC(N)=O)C(=O)N[C@@H](CC(=O)O)C(=O)N[C@@H](CCCNC(=N)N)C(=O)N[C@@H](CCCCN)C(=O)N[C@@H](CCCCN)C(=O)N[C@@H](CCCNC(=N)N)C(=O)O)[C@@H](C)O)NC(=O)[C@H]([C@@H](C)O)NC(=O)[C@H](CCCNC(=N)N)NC(=O)[C@H](CCCCN)NC(=O)[C@H](C)NC(=O)[C@H](CO)NC1=O` [Sample 29] (H-CEISAKRTCKKRTLRKNDRKKR-OH; disulfide 1-9; N-terminus and C-terminus assumed), in assay [1], the “antitumor activity (tumor cell proliferation-inhibiting activity), in words” value is “high antitumor activity” and the “A450(-A620) After 24 hers” value turned out to be 1.6577.
Turning to EFEYFHPATFRL [Sample 20, EFEYFHPATFRL], the “A450(-A620) After 24 hers” value in assay [1] is recorded as 1.8115; in assay [3] (N1E-115, peptide 50 μM), 0.5772; in assay [3] (N1E-115, peptide 100 μM), 0.6481.
In the case of EFEYFHPATFRLKKRTLRKNDRKKR [Sample 42], the “antitumor activity (tumor cell proliferation-inhibiting activity), in words” value in assay [3] is on record as “high antitumor activity”. For the same compound, the “A450(-A620) After 24 hers” value came out at 0.5145 in assay [3] (N1E-115, peptide 50 μM) and 0.4114 in assay [3] (N1E-115, peptide 100 μM).
As to GAVTYSRISGQY [Sample 22, GAVTYSRISGQY], the “A450(-A620) After 24 hers” value in assay [1] was 1.9711.
For GPHHYWYHLRLPKKRTLRKNDRKKR [Sample 38], the “antitumor activity (tumor cell proliferation-inhibiting activity), in words” value in assay [3] is on record as “high antitumor activity”. In addition, the “A450(-A620) After 24 hers” value was 0.4605 in assay [3] (N1E-115, peptide 50 μM) and 0.3592 in assay [3] (N1E-115, peptide 100 μM).
For GPHLGMNQRRRPKKRTLRKNDRKKR [Sample 43], the “antitumor activity (tumor cell proliferation-inhibiting activity), in words” value in assay [3] was “high antitumor activity”. The “A450(-A620) After 24 hers” value in assay [3] (N1E-115, peptide 50 μM) is listed as 0.4784; in assay [3] (N1E-115, peptide 100 μM), 0.4110.
With NMTTYPMHNNTV [Sample 18, NMTTYPMHNNTV], the “A450(-A620) After 24 hers” value was determined as 1.6767 in assay [1]; 0.6054 in assay [3] (N1E-115, peptide 50 μM); 0.5999 in assay [3] (N1E-115, peptide 100 μM).
For the compound NMTTYPMHNNTVKKRTLRKNDRKKR [Sample 40], in assay [1], the “antitumor activity (tumor cell proliferation-inhibiting activity), in words” value is on record as “high antitumor activity” and the “A450(-A620) After 24 hers” value came to 1.5890.
For the compound QSPVNHHYHYHI [Sample 17, QSPVNHHYHYHI], the “A450(-A620) After 24 hers” value was determined as 1.9428 in assay [1]; 0.6019 in assay [3] (N1E-115, peptide 50 μM); 0.5818 in assay [3] (N1E-115, peptide 100 μM).
Turning to SLLPHSNHAKHY [Sample 19, SLLPHSNHAKHY], in assay [1], the “A450(-A620) After 24 hers” value is listed as 1.8271.
In the case of TPSLPPTMFRLT [Sample 15, TPSLPPTMFRLT], the “A450(-A620) After 24 hers” value in assay [1] stood at 1.6022.
